Test results taken from patent US3984413A, “Phenoxyalkanecarboxylic acid esters of hydroxyalkyltheophyllines and method for their manufacture” (L. Merckle KG, priority 1973, dated 1976).
Read-outs that look alike come from different tables or passages of the source.

Key:
[1] = antilipemic and anticholesterolemic action in rats on fatty diet, 14 days; type: in vivo, rat (male SPF Wistar); details: for Drop (nonvolatile triglycerides) / Final value cholesterol / Final value nonvolatile triglycerides / Drop (cholesterol): 14 days; for Final value cholesterol / Final value nonvolatile triglycerides: blood serum; for reduction of the triglycerides compared with Clofibrat: in a substantially lower dosage than Clofibrat
Protocol: (§1) The antilipemic and anticholesterolemic action of the compounds according to the invention and of Clofibrat as a standard of comparison was tested on each of 10 male SPF Wistar strain rats of body weights from 80 to 90 g. For test purposes the animals were kept individually apart with restricted feed but water as desired. The animals of control group I were given 10 g basal diet daily, those of control group II, the test groups as well as the Clofibrat comparison group received in addition to the basal diet a fatty composition consisting of 40 g/kg butter with 5 g/kg cholesterol. The test substances conforming to the examples, and also the Clofibrat, were suspended in a 0.2% methylcellulose solution and administered by probang. The final cholesterol value and the value of the nonvolatile triglycerides was determined after 14 days treatment. The analyses were performed in the blood serum by means of an SMA 12/60 auto-analyzer.

[2] = cited from earlier work
[3] = mouse; comparison, literature data; 10080 min; cited from earlier work
[4] = over-all tolerance and clinical pattern during the rat lipid trial; type: in vivo, rat (male SPF Wistar)
Protocol: as §1
There were no deaths. […] No difference could be determined in hearing tests.

[5] = action on peripheral circulation in narcotized dogs; type: in vivo, dog
Excerpt: According to Examples 2, 3 and 4, the peripheral circulation is increased some 20-30% of its initial level by the test substances according to those examples.

[6] = acute toxicity (LD50) in rats, oral; details: in vivo, rat
Protocol: (§2) The acute toxicity of the preparations according to the invention was tested on CFJ strain mice and Sprague-Dawley rats.
(§3) The test substances according to Examples 2,5,6,8 and 10 were administered orally as a 5% suspension in methylcellulose by means of a probang, while the test material according to Example 4, was administered in a 8% gelatin suspension. The test materials for Examples 1 and 3 were administered orally by probang in an aqueous kaolin paste to rats (5 female and 5 male rats weighing 140 to 185 grams each).
(§4) The period of observation was 7 days.

[7] = acute toxicity (LD50) in mice, oral; details: in vivo, mouse
Protocol: as §2, §3, §4

[8] = action on blood pressure in narcotized dogs; details: into the duodenum, doses up to 200 mg/kg
[9] = versus control groups and Clofibrat comparison group
[10] = oral, 5% suspension in methylcellulose, 7 days, according to Litchfield and Wilcoxon

CCOC(=O)C(C)(C)Oc1ccc(Cl)cc1 [Clofibrat, ethyl 2-(p-chlorophenoxy) isobutyrate, reference compound]
Drop (nonvolatile triglycerides) ([1]; 250 mg/kg): 20.6% | Final value cholesterol ([1]; 250 mg/kg): 133.3 mg % | Final value nonvolatile triglycerides ([1]; 250 mg/kg): 107.7 | lowering of cholesterol ([1]; fatty diet rats, in these experimental trials): absolutely inactive | effect on cholesterol value ([2]; fatty diet rat test, Berger et al. 1969): does not lower but even raises the cholesterol value | lowering of cholesterol ([2]; reported in the literature): frequently been reported in the literature | LD50 [3]: 1150 mg/kg

Cn1c(=O)c2c(ncn2CCOC(=O)C(C)(C)Oc2ccc(Cl)cc2)n(C)c1=O [Example 1, 1-(7-theophyllinyl)-2-ethyl [2-(p-chlorophenoxy)-isobutyrate]]
Drop (cholesterol) ([1]; 100 mg/kg): 22.7% | Drop (nonvolatile triglycerides) ([1]; 100 mg/kg): 17.3% | Final value cholesterol ([1]; 100 mg/kg): 95.2 mg % | Final value nonvolatile triglycerides ([1]; 100 mg/kg): 112.2 | lowering of increased cholesterol values (in words) ([1]; in comparison to Clofibrat): with greater significance lower the increased cholesterol values | reduction of the triglycerides (in words) ([1]; rat, in vivo): comparatively good reduction of the triglycerides | over-all tolerance ([4]; rat, in vivo): no differences in the over-all tolerance | increase of peripheral circulation, of its initial level [5]: up to 10% | peripheral circulation activity (in words) [5]: only slight activity | LD50 at 168 h ([6]; oral by probang, aqueous kaolin paste, 7 days observation): > 4000 mg/kg

Cn1c(=O)c2c(ncn2CC(O)COC(=O)COc2ccc(Cl)cc2)n(C)c1=O (stereo not shown) [Example 2, 1-(7-theophyllinyl)-2-hydroxy-3-propyl (p-chlorophenoxyacetate)]
Drop (nonvolatile triglycerides) ([1]; 100 mg/kg): 45.9% | Final value cholesterol ([1]; 100 mg/kg): 130.3 mg % | Final value nonvolatile triglycerides ([1]; 100 mg/kg): 73.4 | reduction of the triglycerides compared with Clofibrat [1]: more than twice as large a reduction of the triglycerides | over-all tolerance [4, 9]: no differences in the over-all tolerance | increase of peripheral circulation, of its initial level [5]: 20-30% | LD50 at 168 h [7, 10]: 2150 mg/kg | systolic and diastolic blood pressure [8]: did not acutely affect the systolic and diastolic blood pressure to any substantial degree

Cn1c(=O)c2c(ncn2CC(COC(=O)COc2ccc(Cl)cc2)OC(=O)COc2ccc(Cl)cc2)n(C)c1=O (stereo not shown) [Example 3, 1-(7-theophyllinyl)-2,3-propylidenedi(p-chlorophenoxy acetate)]
Drop (nonvolatile triglycerides) ([1]; 100 mg/kg): 44.2% | Final value cholesterol ([1]; 100 mg/kg): 122.0 mg % | Final value nonvolatile triglycerides ([1]; 100 mg/kg): 75.7 | reduction of the triglycerides compared with Clofibrat [1]: more than twice as large a reduction of the triglycerides | over-all tolerance [4, 9]: no differences in the over-all tolerance | increase of peripheral circulation, of its initial level [5]: 20-30% | systolic and diastolic blood pressure [8]: did not acutely affect the systolic and diastolic blood pressure to any substantial degree | LD50 at 168 h ([6]; po): > 4000 mg/kg

Cn1c(=O)c2c(ncn2CCOC(=O)C(Oc2ccc(Cl)cc2)Oc2ccc(Cl)cc2)n(C)c1=O [Example 4, 1-(7-theophyllinyl)-2-ethyl bis-(p-chlorophenoxy) acetate]
Final value cholesterol ([1]; 35 mg/kg): 132.3 mg % | Final value nonvolatile triglycerides ([1]; 35 mg/kg): 148.3 | Drop (cholesterol) ([1]; 100 mg/kg): 9.8% | Final value cholesterol ([1]; 100 mg/kg): 111.0 mg % | Final value nonvolatile triglycerides ([1]; 100 mg/kg): 179.7 | weight increase ([4]; 100 mg/kg dosage): reduced increase in weight | increase of peripheral circulation, of its initial level [5]: 20-30% | LD50 at 168 h ([7]; po): 1910 mg/kg | systolic and diastolic blood pressure [8]: did not acutely affect the systolic and diastolic blood pressure to any substantial degree

Cn1c(=O)c2c(ncn2CCOC(=O)COc2ccc(Cl)cc2)n(C)c1=O [Example 5]
LD50 at 168 h [7, 10]: 1510 mg/kg

CC(Oc1ccc(Cl)cc1)C(=O)OCCn1cnc2c1c(=O)n(C)c(=O)n2C (stereo not shown) [Example 6]
LD50 at 168 h [7, 10]: 1540 mg/kg

CC(Oc1cccc(C(F)(F)F)c1)C(=O)OCCn1cnc2c1c(=O)n(C)c(=O)n2C (stereo not shown) [Example 8]
LD50 at 168 h [7, 10]: 2140 mg/kg

Cn1c(=O)c2c(ncn2CCOC(=O)COc2ccc(F)cc2)n(C)c1=O [Example 10]
LD50 at 168 h [7, 10]: 1680 mg/kg
